# Key:
# [1] = dissolution in water when preparing the liquid dosing formulation; type: physicochemical; details: for 200 mg/kg dosing preparation
# Protocol: Thus three animals were administered 200 mg/kg of each the acid and base formulations in liquid or suspension, respectively, to determine if the dosing and/or variability would improve. […] The solution, and suspension were prepared in water with 0.25% carboxymethylcellulose to facilitate fluidity during dosing. Samples were collected at 30 minutes, 1, 2, 5 and 24 hours after administration of […].
# [2] = bioequivalence study in rats: d-tetrandrine plasma concentration after oral gavage of free base versus hydrochloride salt (HPLC); type: in vivo, Sprague-Dawley rats
# Protocol: A bioequivalence study in rats was conducted to compare the rate and extent to which the active drug ingredient (d-tetrandrine) is absorbed from a free base versus a hydrochloride salt. The drug ingredients were formulated in capsules by the University of Kentucky Center for Pharmaceutical Sciences and Technology (CPST) to administer equivalent amounts of d-tetrandrine to rats via oral gavage. Dosing syringes, capsule filling apparatus and mini capsules (size 9) appropriate for dosing rats were obtained from Torpac (Fairfield, N.J.).
# A single rat per time point (destructive sampling) was used to obtain as much blood volume as possible for the HPLC analysis. This was necessary to accommodate analysis with the current UV based HPLC assay that had extensively been used at CBA Pharma. The JPLC analyses were performed at the CBA Pharma facilities, by a scientist with extensive experience in plasma based assay. Results were provided to a second scientist for evaluation and modeling.
# Given the limited information on rat d-tetrandrine pharmacokinetics (PK), the studies were conducted in stages. A preliminary study (pilot) to identify the dose required for adequate assay sensitivity was first conducted using approximately 25 mg/kg and approximately 120 mg/kg doses administered in capsules. Four animals per dose level per formulation (acid or base) were administered drug. Sprague-Dawley rats were used for these studies and were obtained from Harlan Laboratories at least one weak prior to the experiments to allow animals to recover from shipping stress and to acclimate. Animals weighed 200-250 g at the time of the experiments. Animals were euthanized one hour after drug administration and blood was collected in EDTA containing tubes via cardiac puncture and rapidly centrifuged to separate the plasma. Typically, enough plasma was obtained to afford duplicate sample analysis. The plasma was stored at −80° C. until it was transported to CBA Pharma facilities in Styrofoam containers containing dry ice.
# However, multiple capsules required for dosing higher doses were contributing to the pharmacokinetic variability observed in initial pilot studies. Thus in subsequent studies, younger and smaller animals were administered doses of approximately 150 mg/kg, and blood samples were obtained two hours after drug administration. These smaller animals were more difficult to dose because the size of the tablet. Three animals from the “acid” group and two animals from the “base” group were excluded based on the technician's judgment that some tissue damage had been done to the animals during the gavage dosing. […]
# In some cases the plasma concentrations could not be determined due to extremely high interfering peaks. […]
compound,measurement,setting,value
COc1ccc2cc1Oc1ccc(cc1)C[C@H]1c3cc(c(OC)cc3CCN1C)Oc1c(OC)c(OC)cc3c1[C@H](C2)N(C)CC3 [d-tetrandrine],solubility in water,[1],did not dissolve in water
same,"rate of absorption into the bloodstream, free base versus di-acid salt",[2]; free base formulations compared with di-acid salt formulations,substantially as rapidly as formulations of the di-acid salt
same,d-tetrandrine plasma concentrations relative to the limit of the HPLC assay,"[2]; rats, 100 mg/kg, liquid/suspension, oral gavage, sampled up to 48 hours, FIG. 4",well above the qualification limit of the HPLC assay for 48 hours
same,"AUC estimates (Bailer method), acid versus base formulation","[2]; rats, 100 mg/kg, oral gavage, p>0.05, FIG. 6",no statistical or otherwise significant difference
same,"plasma concentrations and dose normalized plasma concentrations, comparison of d-tetrandrine and d-tetrandrine-2HCl formulations","[2]; rats, higher dose (approximately 230 mg/kg capsules, 200 mg/kg liquid/suspension), oral gavage, Student t-test, two-tailed, p>0.05, FIG. 2",no statistical difference
